test system: HCV replicon I389luc-ubi-neo/NS3-3′/ET in ET (Huh-lucubineo-ET) cell line; experiment: Replicon assay (luciferase reporter); type: cell-based; details: Hepatitis C virus; tested at 33 μM; ET (Huh-lucubineo-ET) replicon cells, luciferase activity, relative to no compound control; read-out: % inhibition of replication
Experimental: A cell line, ET (Huh-lucubineo-ET) was used for screening of compounds of the present invention for HCV RNA dependent RNA polymerase. The ET cell line was stably transfected with RNA transcripts harboring a I389luc-ubi-neo/NS3-3′/ET; replicon with firefly luciferase-ubiquitin-neomycin phosphotransferase fusion protein and EMCV-IRES driven NS3-5B polyprotein containing the cell culture adaptive mutations (E1202G; T1280I; K1846T) (Krieger at al, 2001 and unpublished). The ET cells were grown in DMEM, supplemented with 10% fetal calf serum, 2 mM Glutamine, Penicillin (100 IU/mL)/Streptomycin (100 μg/mL), 1× nonessential amino acids, and 250 μg/mL G418 (“Geneticin”). They were all available through Life Technologies (Bethesda, Md.). The cells were plated at 0.5-1.0×10^4 cells/well in the 96 well plates and incubated for 24 hrs before adding nucleoside analogs. Then the compounds were added to the cells to achieve a final concentration of 5 or 50 μM. Luciferase activity was measured 48-72 hours later by adding a lysis buffer and the substrate (Catalog number Glo-lysis buffer E2661 and Bright-Glo leuciferase system E2620 Promega, Madison, Wis.). Cells should not be too confluent during the assay. Percent inhibition of replication was plotted relative to no compound control. Under the same condition, cytotoxicity of the compounds was determined using cell proliferation reagent, WST-1 (Roche, Germany). The compounds showing potent antiviral activities, but no significant cytotoxicities were chosen for further evaluation. For these determinations, a 10-point, 2-fold serial dilution for each compound was used which spans a concentration range of 1000 fold. IC50 and TC50 values were calculated by fitting % inhibition at each concentration to the following equation: % inhibition=100%/[(IC50/[I])^b+1] where b is Hill's coefficient.
The % inhibition at a particular concentration was determined using the following equation: % Inhibition=100−[100*(Lum with inhibitor-bg)/(Lum with no inhibitor-bg)] where bg was the background with no replicon cell, and Lum was the luminescence intensity of the reporter luciferase gene.

SMILES | inhibition at 33 µM
Cc1nc(C)c(-c2ccc3cc(-c4c(C5CCCCC5)cc(C(=O)NCC(=O)O)n4CC(=O)N4CCOCC4)ccc3n2)s1 [Compound 33, 2-(4-cyclohexyl-5-(2-(2,4-dimethylthiazol-5-yl)quinolin-6-yl)-1-(2-morpholino-2-oxoethyl)-1H-pyrrole-2-carboxamido)acetic acid] | 17%
Cc1nc(C)c(-c2ccc3cc(-c4c(C5CCCCC5)cc(C(=O)O)n4CC(=O)O)ccc3n2)s1 [Compound 30, 1-(carboxymethyl)-4-cyclohexyl-5-(2-(2,4-dimethylthiazol-5-yl)quinolin-6-yl)-1H-pyrrole-2-carboxylic acid] | 22%
Cc1nc(C)c(-c2ccc3cc(-c4c(C5CCCCC5)cc(C(=O)O)n4CC(=O)N4CCOCC4)ccc3n2)s1 [Compound 32, 4-cyclohexyl-5-(2-(2,4-dimethylthiazol-5-yl)quinolin-6-yl)-1-(2-morpholino-2-oxoethyl)-1H-pyrrole-2-carboxylic acid] | 57%
Cc1nc(C)c(-c2ccc3cc(-c4c(C5CCCCC5)cc(C(=O)O)n4CC(=O)OC(C)(C)C)ccc3n2)s1 [Compound 31, 1-((tert-butoxycarbonyl)methyl)-4-cyclohexyl-5-(2-(2,4-dimethylthiazol-5-yl)quinolin-6-yl)-1H-pyrrole-2-carboxylic acid] | 48%

Source: US20060293320A1, “Heteroaryl derivatives for treating viruses” (Genelabs Technologies, Inc., priority 2005, published 2006)
